# From US20050043551A1, “Method of obtaining 2-(2-nitrovinyl)-furan and the use thereof as a coccidiostatic” (priority 2001, published 2005)
# Where “and” joins values, the source holds several entries; their conditions need not be identical. Equal entries are not always repeated.
# Columns and labels:
# [1] = Oral Half Lethal Dose (LD50) in rats; assay type: in vivo; details: several solvents, female and male Sprague Dawley rats
# [2] = assay type: cell-based
# Experimental: (§1) In vitro mutagenesis studies were carried out using the micronucleus assay with blockade of cytokinesis with and without metabolic activation, as well as the sister chromatide exchange assay with and without metabolic activation. It was are carried out a theoretical study assisted by computer for the prognosis of the mutagenic activity.
# E. tenella = assay: Leghorn egg-laying hens naturally infected with E. tenella (Example 3); assay type: in vivo; details: 4 μg/mL in drinking water twice a day for 5 days, deaths/2000 birds
# From the text: The 2-(2-nitrovynil)-furan, in a formulation similar to that described in the example 2, was applied, in the drinking water twice a day (8 am and 12 m) for 5 days, to 2000 Leghorn egg-laying hens of 56-84 days of age, infected naturally with E. tenella. Two houses highly infected by caecal coccidiosis with 2000 birds each were there was an average of 119 deaths per house in 5 days were selected. The diagnoses was made by the presence of bloody diarrheas, the observation of typical lesions in the blind intestine and abundant presence of parasite oocysts in the caecal content. Infected birds in a house was left as nontreated control and another no infected as neither infected nor treated control having the same range of age.
# To evaluate the effectiveness of the product the approach described in the example 2 was used, except that as weight control. Except that as weight control 10 birds of each pen were randomly selected and weighed at the beginning and the end of the treatment.
# [3] = test system: Coccidia (E. perforans, E. magna, E. media, E. exigua); assay: Oocyst reduction in feces of treated rabbits in production conditions (Example 5); assay type: in vivo; details: 4 μg/ml in drinking water 5 days, before vs after 7 days
# Experimental: The 2-(2-nitrovynil)-furan, in a formulation similar to that described in the example 2, was dissolved in rabbit's drinking water and administered daily at libitum for 5 days at concentration of 4 μg/ml. It were treated 1 246 newborn, young and adult rabbits of the Chinchilla, New White Zelanda and New Red Zelanda species belonging to 3 rabbit companies. The species of Coccidia present were E. perforans 34%, E. magna 32%, E. media 23% and E. exigua 11%. The amount of oocysts per gram of feces before and after 7 days of the treatment was determined to 20% of all treated animals. The difference between the number of oocysts before and after 7 days of treatment expressed as percentage of oocyst reduction, was taken as efficacy criterium.
# [4] = Oral Half Lethal Dose (LD50) in hens; assay type: in vivo; details: several solvents, mature Leghorn hens
# [5] = test system: intestinal Coccidias (E. perforans, E. magna, E. media, E. exigua); assay: Rabbits inoculated with oocysts of intestinal Eimeria (Example 4); assay type: in vivo; details: for Weight gain in % during 7 days: 4 μg/mL in drinking water for 5 days; for Mortality: 4 μg/mL, deaths/3 animals
# Experimental: The 2-(2-nitrovynil)-furan, in a formulation similar to that described in the example 2, was dissolved in rabbits' drinking water and administered daily at libitum for 5 days. Two experiments (I, II), each one with 9 rabbits, were carried out. Each experiment had 3 treatments of 3 animals each one. Among treatments an infected no treated group and a group neither infected nor treated were considered.. In the 1st experiment each rabbit received 61×10^3 those of the 2nd experiment 116×10^3 oocysts of intestinal Coccidias. The present species were E. perforans 38%, E. magna 30%, E. media 22% and E. exigua 10%, with a 97.3% of sporulation. The initial and final weight difference and the deaths of animals after 7 days treatment was used as evaluation criteria.
# [6] = In vitro sister chromatide exchange assay; assay type: cell-based; details: with and without metabolic activation
# Experimental: as §1
# Eimeria tenella = assay: Artificial infection of chicks with Eimeria tenella oocysts (Example 2); assay type: in vivo; details: 1x10^5 E. tenella oocysts oral; for Weight gain in % during 9 days: 9 days treatment; for Mortality: deaths/12 birds
# Experimental: To carried out the assay of the action of the synthesized product, the 2-(2nitrovynil)-furan, it was first dissolved first in an alcoholic solution at 3% and later in water, using several concentrations (2, 4, 8 μg/ml) of the alcohol-water solution, as is shown Table 2.
# One day old, male, free of Coccidia, F1 fatten chicks were used. These birds were maintained in an appropriate condition, free of Coccidia until two weeks of age. For feeding, it was used the same food used to fatten chickens but free of anticoccididals.
# 5 groups of 12 poultry with similar weight were formed which received an inoculation of 1×10^5 oocysts of Eimeria tenella by oral route, using a esophagic canula. The treatment began when chicks had 15 days of age, 24 hours before receiving the inoculation, during a period of 9 days.
# To evaluate the effectiveness of the product the gain of weight (% referred to the initial weight) and the death number approaches were used in each tratment.
# [7] = Experiment I, 61 x 10^3 oocysts
# [8] = Experiment II, 116 x 10^3 oocysts
structure (smiles),measurement,setting,value
O=[N+]([O-])C=Cc1ccco1 [2-(2-nitrovynil)-furan],Half Lethal Dose (LD50),[1],171.91 mg/kg of body mass
same,"Mutagenic activity, micronucleus assay",[2],did not shown mutagenic activity
same,Mortality in 5 days,E. tenella,remarkable decrease of mortality and 15/2000
same,Reduction in % (oocysts per gram of feces),"[3]; Company 1, rabbits",90%
same,Reduction in % (oocysts per gram of feces),"[3]; Company 2, rabbits",99%
same,Reduction in % (oocysts per gram of feces),"[3]; Company 3, rabbits",90%
same,Half Lethal Dose (LD50),[4],1.02 g/kg of body mass
same,Weight gain in % during 7 days,[5]; [7],4%
same,Mortality,[5]; [7],no mortality and 0/3
same,Weight gain in % during 7 days,[5]; [8],3%
same,Mortality,[5]; [8],no deaths and 0/3
same,"Mutagenic activity, sister chromatide exchange assay",[6],did not shown mutagenic activity
same,Weight gain in % during 9 days,Eimeria tenella; dose 2 μg/mL,78.79%
same,Mortality,Eimeria tenella; dose 2 μg/mL,1/12
same,Mortality,Eimeria tenella; dose 4 μg/mL,no deaths and 0/12
same,Weight gain in % during 9 days,Eimeria tenella; dose 8 μg/mL,63.95%
same,Mortality,Eimeria tenella; dose 8 μg/mL,0/12
